Consider 7 compounds from US8778931B2, “Substituted hydroxamic acids and uses thereof” (Millennium Pharmaceuticals, Inc., priority 2010, dated 2014).

SMILES strings stand for the structures. Some results are limits rather than exact numbers.

Data set [1] concerns the target T1, purified human HDAC6 (Homo sapiens, UniProt Q9UBN7).
T1 construct: purchased BPS Bioscience 5006
T1 sequence (Q9UBN7 1-1215): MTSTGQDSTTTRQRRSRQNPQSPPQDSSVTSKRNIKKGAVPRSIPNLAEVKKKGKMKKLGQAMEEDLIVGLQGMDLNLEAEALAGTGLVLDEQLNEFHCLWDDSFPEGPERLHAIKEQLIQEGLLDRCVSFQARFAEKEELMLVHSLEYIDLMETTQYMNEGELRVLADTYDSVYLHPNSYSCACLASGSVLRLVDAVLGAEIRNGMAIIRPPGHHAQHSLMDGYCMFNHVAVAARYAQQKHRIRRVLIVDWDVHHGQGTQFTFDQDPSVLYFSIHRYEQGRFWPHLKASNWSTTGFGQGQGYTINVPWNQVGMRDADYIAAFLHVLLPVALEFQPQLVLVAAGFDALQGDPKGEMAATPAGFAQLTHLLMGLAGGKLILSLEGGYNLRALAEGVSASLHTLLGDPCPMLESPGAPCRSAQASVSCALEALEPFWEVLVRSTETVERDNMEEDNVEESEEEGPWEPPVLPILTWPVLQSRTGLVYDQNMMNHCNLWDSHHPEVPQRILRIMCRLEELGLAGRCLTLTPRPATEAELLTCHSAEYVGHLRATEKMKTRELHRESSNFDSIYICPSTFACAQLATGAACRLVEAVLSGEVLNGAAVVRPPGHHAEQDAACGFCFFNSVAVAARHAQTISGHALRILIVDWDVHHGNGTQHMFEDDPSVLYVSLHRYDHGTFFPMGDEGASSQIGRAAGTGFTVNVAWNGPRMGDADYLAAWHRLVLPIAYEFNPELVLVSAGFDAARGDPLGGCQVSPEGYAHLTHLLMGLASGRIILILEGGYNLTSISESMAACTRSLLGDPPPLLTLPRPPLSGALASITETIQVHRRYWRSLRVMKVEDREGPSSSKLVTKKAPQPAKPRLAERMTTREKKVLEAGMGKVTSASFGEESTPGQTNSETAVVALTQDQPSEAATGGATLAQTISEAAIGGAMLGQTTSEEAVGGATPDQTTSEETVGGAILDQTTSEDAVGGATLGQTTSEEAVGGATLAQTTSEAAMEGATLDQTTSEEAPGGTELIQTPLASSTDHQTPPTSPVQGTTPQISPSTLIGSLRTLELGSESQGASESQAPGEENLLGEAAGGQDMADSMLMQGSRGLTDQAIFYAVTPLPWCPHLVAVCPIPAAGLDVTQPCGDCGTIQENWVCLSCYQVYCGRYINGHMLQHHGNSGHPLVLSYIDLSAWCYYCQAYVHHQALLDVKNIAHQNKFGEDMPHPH
Kind of data set: HDAC6 Enzyme Assay. Type of data set: biochemical. Conditions: HDAC6, 0.37 μM concentration; read-out: Percentage Inhibition (%). The procedure: To measure the inhibition of HDAC6 activity, purified human HDAC6 (BPS Bioscience; Cat. No. 5006) is incubated with substrate Ac-Arg-Gly-Lys(Ac)-AMC peptide (Bachem Biosciences; Cat. No. I-1925) for 1 hour at 30° C. in the presence of test compounds or vehicle DMSO control. The reaction is stopped with the HDAC inhibitor trichostatin A (Sigma; Cat. No. T8552) and the amount of Arg-Gly-Lys-AMC generated is quantitated by digestion with trypsin (Sigma; Cat. No. T1426) and subsequent measurement of the amount of AMC released using a fluorescent plate reader (Pherastar; BMG Technologies) set at Ex 340 nm and Em 460 nm. Concentration response curves are generated by calculating the fluorescence increase in test compound-treated samples relative to DMSO-treated controls, and percentage inhibition values at a single concentration or enzyme inhibition (IC50) values are determined from those curves. One skilled in the art will appreciate that the values generated either as percentage inhibition at a single concentration or IC50 values are subject to experimental variation.

Data set [2] is described as follows: Intrinsic Clearance in Microsomes (human). Type of data set: in vitro ADME. The settings on record: liver microsomes, pH 7.4, 2 μM test compound, read-out: In Vitro Microsomal Intrinsic Clearance, Human CL int. The procedure: (§1) The following reagents and stock solutions are required for determination of microsomal clearance.
(§2) • 1. 0.1 M potassium phosphate buffer, pH 7.4: • Stock A (1.0 M): 136.5 g of monobasic potassium phosphate (Sigma #P5379) in 1 L of nanopure water. • Stock B (1.0 M): 174.2 g of dibasic potassium phosphate (Sigma #P8281) in 1 L of nanopure water. • Mix 40.5 mL of stock B+9.5 mL of stock A, adjust pH with monobasic potassium phosphate, qs to 500 mL with nanopure water to give 0.1M potassium phosphate buffer, pH 7.4. • 2. […] NADPH: β-nicotinamide adenine dinucleotide phosphate, reduced form (Sigma #N1630) • 4. UDPGA: Uridine 5′-Diphosphote Glucuronic Acid, Triamnonium salt (Sigma #U-5625) • 5. Alamethicin (Sigma #A-4665-25) • 6. MgCl2: Magnesium chloride (Sigma #M8266) • 7. DMSO: Dimethyl sulfoxide (Sigma #D4540) • 8. 7EC: 7-Ethoxycoumarine (Sigma #E1379), positive control. • 9. Carbutamide (Aldrich cat #38157-8), internal standard. Stock Solutions: • 1. 10 mM stock solution of test compound in DMSO • 200 μM test solution of test compound: 10 μL of 10 mM test compound stock solution+490 μL of 75% ACN/water • 2. 10 mM stock solution of 7-Ethoxycoumarin in DMSO (positive control) • 200 μM test solution of 7-Ethoxycoumarine: 10 μL of 10 mM 7EC stock solution+490 μL of 75% ACN/water. • 3. 10 mM carbutamide stock (internal standard): Dissolve 2.71 mg of carbutimide in 1 mL DMSO. • 1 μM carbutamide solution: 100 μL of 10 mM stock solution in • 1 L of acetonitrile, store at 4° C. • 4. 3 mM MgCl2 in 0.1 M K-phosphate buffer: • Dissolve 28.5 mg of anhydrous MgCl2 in 100 mL of 0.1 M K-phosphate buffer, pH 7.4. • 5. 4× Stock Solution of Cofactors Mixture
(§3) 16 mM NADPH in 0.1 M K-phosphate buffer, pH 7.4 containing MgCl2.
(§4) 20 mM UDPGA in 0.1 M K-phosphate buffer, pH 7.4 containing MgCl2
(§5) Aliquot equal volume of stock solution of NADPH and UDPGA to make the final stock solution of cofactor mixture as follows:
(§6) 10 mM UDPGA • 6. Add 1.25 mL of methanol directly to the bottle of alamethicin. Invert 10 times to dissolve the alamethicin. This yields a 20 mg/ml solution of alamethicin. […]

Data set [3] is described as follows: Intrinsic Clearance in Microsomes (dog). Type of data set: in vitro ADME. The settings on record: liver microsomes, pH 7.4, 2 μM test compound, read-out: In Vitro Microsomal Intrinsic Clearance, Dog CL int (converted). Here is the method: as §1, §2, §3, §4, §5, §6
The nature of data set [4]: Intrinsic Clearance in Microsomes (rat). Type of data set: in vitro ADME. The settings on record: liver microsomes, pH 7.4, 2 μM test compound, read-out: In Vitro Microsomal Intrinsic Clearance, Rat CL int (converted). Here is the method: as §1, §2, §3, §4, §5, §6

In the case of `CC(C)(C)OC(=O)N1CCC(c2ccc(CN3CCc4cc(C(=O)NO)ccc4C3)cc2)CC1` [Compound I-5, tert-butyl 4-(4-{[6-[(hydroxyamino)carbonyl]-3,4-dihydroisoquinolin-2(1H)-yl]methyl}phenyl)piperidine-1-carboxylate], in data set [1], the inhibition at 0.37 µM was 46.2%.

On to `CC1(C(=O)N2CCc3cc(C(=O)NO)ccc3C2)CCNCC1` [Compound I-1, N-hydroxy-2-[(4-methylpiperidin-4-yl)carbonyl]-1,2,3,4-tetrahydroisoquinoline-6-carboxamide], for which the inhibition at 0.37 µM in data set [1] worked out at 79.7%. For the same compound, the CLint scaled at 2 µM is below 6.33 mL/min/kg in data set [2], below 7.83 mL/min/kg in data set [3] and below 14.2 mL/min/kg in data set [4].

With `CC1(C(=O)Nc2ccc(CN3CCc4cc(C(=O)NO)ccc4C3)cc2)CCNCC1` [Compound I-4, N-hydroxy-2-(4-{[(4-methylpiperidin-4-yl)carbonyl]amino}benzyl)-1,2,3,4-tetrahydroisoquinoline-6-carboxamide], the inhibition at 0.37 µM in data set [1] was determined as 72.2%.

On to `CC(C)(C)OC(=O)N1CCC(C)(C(=O)Nc2ccc(CN3CCc4cc(C(=O)NO)ccc4C3)cc2)CC1` [Compound I-6, tert-butyl 4-{[(4-{[6-[(hydroxyamino)carbonyl]-3,4-dihydroisoquinolin-2(1H)-yl]methyl}phenyl)amino]carbonyl}-4-methylpiperidine-1-carboxylate], for which the inhibition at 0.37 µM in data set [1] came out at 61%.

Consider `O=C(NO)c1ccc2c(c1)CCN(Cc1ccc(C3CCNCC3)cc1)C2` [Compound I-3, N-hydroxy-2-(4-piperidin-4-ylbenzyl)-1,2,3,4-tetrahydroisoquinoline-6-carboxamide], for which the inhibition at 0.37 µM in data set [1] was 80.7%.

For the compound `CCN1CCC(C)(C(=O)N2CCc3cc(C(=O)NO)ccc3C2)CC1` [Compound I-2, 2-[(1-ethyl-4-methylpiperidin-4-yl)carbonyl]-N-hydroxy-1,2,3,4-tetrahydroisoquinoline-6-carboxamide], in data set [1], the inhibition at 0.37 µM is 78.3%. Moreover, the CLint scaled at 2 µM in data set [2] is below 6.33 mL/min/kg; in data set [3], below 7.83 mL/min/kg; in data set [4], below 14.2 mL/min/kg.

With `CC(C)(C)OC(=O)N1CCC(C)(C(=O)N2CCc3cc(C(=O)NO)ccc3C2)CC1` [Compound I-13, tert-butyl 4-{[6-[(hydroxyamino)carbonyl]-3,4-dihydroisoquinolin-2(1H)-yl]carbonyl}-4-methylpiperidine-1-carboxylate], in data set [1], the inhibition at 0.37 µM came to 88.8%. Besides, the CLint scaled at 2 µM in data set [2] is below 6.33 mL/min/kg; in data set [3], 31.7 mL/min/kg; in data set [4] it was 46.7 mL/min/kg.
